Experimental data taken from patent EP1210336B1, “SUBSTITUTED BENZIMIDAZOLES AS NON-NUCLEOSIDE INHIBITORS OF REVERSE TRANSCRIPTASE” (THE UNITED STATES OF AMERICA, as represented by the …, priority 1999, dated 2001).
Values joined by “and” are separate entries in the source; they are usually repeats but may differ in a detail not shown here. Equal values may be shown once. Read-outs that look alike come from different tables or passages of the source.

Columns and labels:
[1] = system: WT virus (NL4-3); experiment: microbe, parasite or virus in culture; assay type: cell-based, HIV-1; settings: read-out: EC50
Procedure, shortened: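 CEM-SS cells (5 x 10^3/well) infected with HIV-1 at an MOI giving complete killing by day 6 (e.g., 0.01-0.05), with serial half-log compound dilutions in triplicate. After 6 days at 37°C, viability read by XTT reduction at 450 nm. CIC50 derived from protection against cytopathic killing.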

[2] = system: HIV-1 isolate 4xAZT/L100I; experiment: Cytopathic cell killing assay, cross-resistance profile, infected MT-4 cells; assay type: cell-based; settings: Table 8; isolate 4XA7T L 1001; read-out: EC50
Experimental: The various HIV isolates tested in the Figures are those corresponding to wild-type virus (NL4-3) and the other strains listed by their RT mutations. The three 4xAZT isolates included in the Figures represent AZT drug-resistant variants. […]
(§1) Briefly, in this method cells (e.g., the CEM-SS cell line, available from the NIAID AIDS Research and Reference Program [ARRRP]) were seeded at a density of 5 x 10^3 cells/well, into the wells of a 96-well microtiter plate. The cells were then infected with HIV virus (either mutant or WT), at a multiplicity of infection (MOI) previously determined to provide complete cell killing by 6 days of culture post-infection (e.g., MOI of 0.01-0.05). Each of the HIV isolates was pre-titered to induce equivalent levels of infection based on cell killing or virus production, prior to their use in these assays. A range of test compound concentrations was added to the wells in triplicate (e.g., serial half-log dilutions) to evaluate inhibition of HIV infection. Controls for each assay included drug controls (drug colorimetric control wells), drug cytotoxicity control wells (cells with drug), virus control wells (cells with virus), and cell viability controls (cells only). Positive control drugs (e.g., AZT and ddC) were also run in parallel.
(§2) After six days of incubation at 37°C, cell viability was determined spectrophotometrically at 450 nm for each well, using the metabolic reduction of XTT to a soluble colored formazan. (See, Gartner and Popovic, "Virus Isolation and Production, in Aldovini and Walker (eds.), Techniques in HIV Research, Stockton Press, NY, pp. […] [1991]; and Nara and Fischinger, "Quantitative Infectivity Assay for HIV-1 and HIV-2," Nature 332:469-470 [1988]).
The in vitro therapeutic index (TI50) was defined as the fold-difference between the EC50 and IC50.

[3] = target: T1, HIV-1 WT RT (Human immunodeficiency virus type 1 group M subtype B, UniProt P03366); experiment: biochemical; settings: for IC50: read-out: IC50
T1 construct: purified RT protein (0.015 mg/mL) was incubated in a 100 µL reaction mixture

[4] = system: HIV-1 variant L74V; experiment: Cytopathic cell killing assay, cross-resistance profile, infected MT-4 cells; assay type: cell-based; settings: Table 8; isolate 1.74V; read-out: EC50
Text: (§3) The various HIV isolates tested in the Figures are those corresponding to wild-type virus (NL4-3) and the other strains listed by their RT mutations. The three 4xAZT isolates included in the Figures represent AZT drug-resistant variants. For example, the 4xAZT/L100I isolate has five mutations: four mutations confer increased resistance to AZT, and the other mutation is located within the NNRTI binding pocket. TZB and nevir. (nevirapine) are two well-known NNRTIs, included in this experiment for comparison purposes. […]
as §1, with “In this Example, the antiviral and cellular toxicity of NNRTIs was investigated, using the cytopathic cell killing assay described by Yang (Yang et al., "Characteristics of a Group of Non-nucleoside Reverse Transcriptase Inhibitors with Structural Diversity and Potent Anti-Human Immunodeficiency Virus Activity," Leukemia 9:S75-S85 [1995]). Briefly,” for “Briefly,”
as §2
(§4) The in vitro therapeutic index (TI50) was defined as the fold-difference between the EC50 and IC50. The results for the various compounds are included in Figures 8 and 19.

[5] = system: HIV-1 variant K103N; experiment: as above; assay type: cell-based; settings: Table 8; isolate K103N; read-out: EC50
Text: as §3
as §1, with “In this Example, the antiviral and cellular toxicity of NNRTIs was investigated, using the cytopathic cell killing assay described by Yang (Yang et al., "Characteristics of a Group of Non-nucleoside Reverse Transcriptase Inhibitors with Structural Diversity and Potent Anti-Human Immunodeficiency Virus Activity," Leukemia 9:S75-S85 [1995]). Briefly,” for “Briefly,”
as §2, §4

[6] = system: HIV-1 variant Y188H; experiment: as above; assay type: cell-based; settings: Table 10 (values in µM); isolate Y188H; read-out: EC50
Text: as §3
as §1, with “In this Example, the antiviral and cellular toxicity of NNRTIs was investigated, using the cytopathic cell killing assay described by Yang (Yang et al., "Characteristics of a Group of Non-nucleoside Reverse Transcriptase Inhibitors with Structural Diversity and Potent Anti-Human Immunodeficiency Virus Activity," Leukemia 9:S75-S85 [1995]). Briefly,” for “Briefly,”
as §2, §4

[7] = system: HIV-1 variant V179D; experiment: as above; assay type: cell-based; settings: Table 8; isolate V179D; read-out: EC50
Text: as §3
as §1, with “In this Example, the antiviral and cellular toxicity of NNRTIs was investigated, using the cytopathic cell killing assay described by Yang (Yang et al., "Characteristics of a Group of Non-nucleoside Reverse Transcriptase Inhibitors with Structural Diversity and Potent Anti-Human Immunodeficiency Virus Activity," Leukemia 9:S75-S85 [1995]). Briefly,” for “Briefly,”
as §2, §4

[8] = system: HIV-1 variant L100I; experiment: as above; assay type: cell-based; settings: Table 8; isolate 1.1001; read-out: EC50
Text: as §3
as §1, with “In this Example, the antiviral and cellular toxicity of NNRTIs was investigated, using the cytopathic cell killing assay described by Yang (Yang et al., "Characteristics of a Group of Non-nucleoside Reverse Transcriptase Inhibitors with Structural Diversity and Potent Anti-Human Immunodeficiency Virus Activity," Leukemia 9:S75-S85 [1995]). Briefly,” for “Briefly,”
as §2, §4

[9] = system: HIV-1 variant V106A; experiment: as above; assay type: cell-based; settings: Table 8; isolate V 106A; read-out: EC50
Text: as §3
as §1, with “In this Example, the antiviral and cellular toxicity of NNRTIs was investigated, using the cytopathic cell killing assay described by Yang (Yang et al., "Characteristics of a Group of Non-nucleoside Reverse Transcriptase Inhibitors with Structural Diversity and Potent Anti-Human Immunodeficiency Virus Activity," Leukemia 9:S75-S85 [1995]). Briefly,” for “Briefly,”
as §2, §4

[10] = system: HIV-1 variant V108I; experiment: as above; assay type: cell-based; settings: Table 8; isolate V1081; read-out: EC50
Text: as §3
as §1, with “In this Example, the antiviral and cellular toxicity of NNRTIs was investigated, using the cytopathic cell killing assay described by Yang (Yang et al., "Characteristics of a Group of Non-nucleoside Reverse Transcriptase Inhibitors with Structural Diversity and Potent Anti-Human Immunodeficiency Virus Activity," Leukemia 9:S75-S85 [1995]). Briefly,” for “Briefly,”
as §2, §4

[11] = system: HIV-1 variant Y188C; experiment: as above; assay type: cell-based; settings: read-out: EC50
Text: as §3
as §1, with “In this Example, the antiviral and cellular toxicity of NNRTIs was investigated, using the cytopathic cell killing assay described by Yang (Yang et al., "Characteristics of a Group of Non-nucleoside Reverse Transcriptase Inhibitors with Structural Diversity and Potent Anti-Human Immunodeficiency Virus Activity," Leukemia 9:S75-S85 [1995]). Briefly,” for “Briefly,”
as §2, §4

[12] = system: HIV-1 variant A98G; experiment: as above; assay type: cell-based; settings: Table 8; isolate A9SG; read-out: EC50
Text: as §3
as §1, with “In this Example, the antiviral and cellular toxicity of NNRTIs was investigated, using the cytopathic cell killing assay described by Yang (Yang et al., "Characteristics of a Group of Non-nucleoside Reverse Transcriptase Inhibitors with Structural Diversity and Potent Anti-Human Immunodeficiency Virus Activity," Leukemia 9:S75-S85 [1995]). Briefly,” for “Briefly,”
as §2, §4

[13] = system: HIV-1 variant K101E; experiment: as above; assay type: cell-based; settings: Table 8; isolate K101E; read-out: EC50
Text: as §3
as §1, with “In this Example, the antiviral and cellular toxicity of NNRTIs was investigated, using the cytopathic cell killing assay described by Yang (Yang et al., "Characteristics of a Group of Non-nucleoside Reverse Transcriptase Inhibitors with Structural Diversity and Potent Anti-Human Immunodeficiency Virus Activity," Leukemia 9:S75-S85 [1995]). Briefly,” for “Briefly,”
as §2, §4

[14] = system: HIV-1 variant M184l; experiment: as above; assay type: cell-based; settings: Table 10 (values in µM); isolate M184l; read-out: EC50
Text: as §3
as §1, with “In this Example, the antiviral and cellular toxicity of NNRTIs was investigated, using the cytopathic cell killing assay described by Yang (Yang et al., "Characteristics of a Group of Non-nucleoside Reverse Transcriptase Inhibitors with Structural Diversity and Potent Anti-Human Immunodeficiency Virus Activity," Leukemia 9:S75-S85 [1995]). Briefly,” for “Briefly,”
as §2, §4

[15] = system: HIV-1 isolate 4xAZT; experiment: as above; assay type: cell-based; settings: Table 8; isolate 4XAZT; read-out: EC50
Text: as §3
as §1, with “In this Example, the antiviral and cellular toxicity of NNRTIs was investigated, using the cytopathic cell killing assay described by Yang (Yang et al., "Characteristics of a Group of Non-nucleoside Reverse Transcriptase Inhibitors with Structural Diversity and Potent Anti-Human Immunodeficiency Virus Activity," Leukemia 9:S75-S85 [1995]). Briefly,” for “Briefly,”
as §2, §4

[16] = system: HIV-1 isolate 4xAZT/Y181C; experiment: as above; assay type: cell-based; settings: Table 8; isolate 4XAZT /Y181C; read-out: EC50
Text: as §3
as §1, with “In this Example, the antiviral and cellular toxicity of NNRTIs was investigated, using the cytopathic cell killing assay described by Yang (Yang et al., "Characteristics of a Group of Non-nucleoside Reverse Transcriptase Inhibitors with Structural Diversity and Potent Anti-Human Immunodeficiency Virus Activity," Leukemia 9:S75-S85 [1995]). Briefly,” for “Briefly,”
as §2, §4

[17] = system: NL4-3 (WT); experiment: as above; assay type: cell-based, HIV-1; settings: read-out: EC50
Text: as §3
as §1, with “In this Example, the antiviral and cellular toxicity of NNRTIs was investigated, using the cytopathic cell killing assay described by Yang (Yang et al., "Characteristics of a Group of Non-nucleoside Reverse Transcriptase Inhibitors with Structural Diversity and Potent Anti-Human Immunodeficiency Virus Activity," Leukemia 9:S75-S85 [1995]). Briefly,” for “Briefly,”
as §2, §4

4-amino-1-(2,6-difluorobenzyl)-2-(2,6-difluorophenyl)benzimidazole [compound 53]
EC50 ([1]; Table 7, concentration reducing cell killing or virus production by 50%, HIV-1 WT): 460 nM | EC50 ([1]; Table 11, CEMSS/NL4-3, NRVC = reduction in viral CPE not seen (footnote)): 460 nM | EC50 [2]: 300 nM | IC50 ([3]; HIV-1 WT RT): 280 nM | IC50 ([3]; Table 7, HIV-1 WT RT): 280 nM | %inhibn (1µM) ([3]; Table 7, WT HIV-1 RT, 1 µM drug): 69% | IC50 ([3]; Table 11, WT RT): 280 nM | EC50 [4]: 300 nM | EC50 [5]: > 20000 nM | EC50 [6]: > 50 µM | EC50 [7]: 6000 nM | EC50 [8]: 1300 nM | EC50 [9]: > 20000 nM | EC50 [10]: > 20000 nM | EC50 ([11]; Table 8, isolate Y 188C): 2.7 µM | EC50 ([11]; Table 10 (values in µM), isolate Y188C): 2 µM | EC50 [12]: 1500 nM | EC50 [13]: > 20000 nM | EC50 [14]: 0.65 µM | EC50 [15]: 200 nM | EC50 [16]: > 10000 nM | EC50 ([17]; Table 8, isolate N1.43): 0.5 µM | EC50 ([17]; Table 10 (values in µM), isolate NL4-3 (WT), listed as NH2): 0.68 µM and 0.4 µM
